The source of these data is patent US10544106B2, “Certain chemical entities, compositions, and methods” (NeuPharma, Inc., priority 2016, dated 2020).

By IC50 is commonly meant the midpoint of a concentration-inhibition curve. A high value points to weaker potency. The inhibition is the share of the control response that was lost under treatment.

The subject of test [1] is OCI-Ly10 cells. As to the kind of experiment: OCI-Ly10 cell proliferation assay (Alamar Blue, 72 hours). Format: cell-based. As to conditions: Homo sapiens. How it is done: OCI-Ly10 cells were cultured in Iscove's DMEM supplemented with 20% fetal bovine serum and 1× penicillin/streptomycin/glutamine. The cells were maintained in T175 flasks under 5% CO2 in a 37 ° C. humidified incubator for 5 days prior to plating and assay.
Cells were pooled by centrifugation (200 ref, 8 minutes) and resuspended in fresh medium to a concentration of 2.00E+05 cells/ml. 200 µl of the cell suspension was added to each well (40,000 cells/well) of a black-walled 96 well plate to which 1 μl of compound (n=3 per concentration) in 100% DMSO (0.5% final concentration) was added per well. Vehicle and cell free wells were also included in the assay. The dosed cells were cultured under normal conditions for 72 hours.
Cell proliferation is measured using the dye Alamar Blue (resazurin). Resazurin is reduced to resorufin by cellular enzymes and is fluorescent (544 nm excitation, 612 nm emission). Fluorescence intensity is proportional to cell number. Resazurin was prepared in PBS to a stock concentration of 440 μM. 40 μl of the 440 μM resazurin stock solution was added 3 hours prior to the 72 hour termination of the assay. The plate was returned to normal culture conditions and fluorescence measurements were collected using a Cytation3 multimode plate reader (Biotek) at 72 hours.
The scale utilized in Table 8 is as follows: ++ less than 50 nM and + greater than 50 nM.

For test [2], the target named is BTK (Homo sapiens (Human), UniProt Q06187). As to the kind of experiment: Z'-LYTE kinase inhibition assay against BTK. Format: biochemical. The method, boiled down: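 Z′-LYTE FRET readout: 1.04-10.4 ng BTK with 2 μM Tyr 01 peptide, ATP at Km, in 50 mM HEPES pH 7.5, 10 mM MgCl2, 1 mM EGTA, 0.01% BRIJ-35, 1% DMSO. 60 min kinase reaction at room temperature, then 60 min development; IC50 from 10-point, 3-fold titrations.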

The target in test [3] is EGFR (ErbB1) L858R/T790M (Homo sapiens (Human), UniProt P00533, L858R/T790M). As to the kind of experiment: Z'-LYTE kinase inhibition assay against EGFR L858R/T790M. As to conditions: compound at 100 nM; ATP concentration at Km. Type of test: biochemical. How it is done: (§1) Inhibitory activities of compounds against BTK, EGFR T790M, EGFR L858R, and EGFR L858R/T790M were measured using Z′-LYTE® Method from Life Technologies as briefly described in the following.
(§2) Test Compounds are screened in 1% DMSO (final) in the well. For 10 point titrations, 3-fold serial dilutions are conducted from the starting concentration. All ATP Solutions are diluted to a 4× working concentration in Kinase Buffer (50 mM HEPES pH 7.5, 0.01% BRIJ-35, 10 mM MgCl2, 1 mM EGTA). Peptide/Kinase Mixtures are diluted to a 2× working concentration in the appropriate Kinase Buffers as described below. • (i) Peptide/Kinase Mixtures for measurement of EGFR (ErbB1) L858R: • The 2×EGFR (ErbB1) L858R/Tyr 04 mixture is prepared in 50 mM HEPES pH 7.5, 0.01% BRIJ-35, 10 mM MgCl2, 4 mM MnCl2. 1 mM EGTA, 2 mM DTT. The final 10 μL Kinase Reaction consists of 0.2-1.68 ng EGFR (ErbB1) L858R and 2 μM Tyr 04 in 50 mM HEPES pH 7.5, 0.01% BRIJ-35, 10 mM MgCl2, 2 mM MnCl2, 1 mM EGTA, 1 mM DTT. After the 1 hour Kinase Reaction incubation, 5 μL of a 1:64 dilution of Development Reagent B is added. • (ii) Peptide/Kinase Mixtures for measurement of EGFR (ErbB1) T790M: The 2×EGFR (ErbB1) T790M/Tyr 04 mixture is prepared in 50 mM HEPES pH 6.5, 0.01% BRIJ-35, 10 mM MgCl2, 1 mM EGTA, 0.02% NaN3. The final 10 μL Kinase Reaction consists of 3.9-30.2 ng EGFR (ErbB1) T790M and 2 μM Tyr 04 in 50 mM HEPES pH 7.0, 0.01% BRIJ-35, 10 mM MgCl2, 1 mM EGTA, 0.01% NaN3. After the 1 hour Kinase Reaction incubation, 5 μL of a 1:64 dilution of Development Reagent B is added. • (iii) Peptide/Kinase Mixtures for measurement of EGFR (ErbB1) L858R/T790M: The 2×EGFR (ErbB1) T790M L858R/Tyr 04 mixture is prepared in 50 mM HEPES pH 6.5, 0.01% BRIJ-35, 10 mM MgCl2, 1 mM EGTA, 0.02% NaN3. The final 10 μL Kinase Reaction consists of 0.38-4.22 ng EGFR (ErbB1) T790M L858R and 2 μM Tyr 04 in 50 mM HEPES pH 7.0, 0.01% BRIJ-35, 10 mM MgCl2, 1 mM EGTA, 0.01% NaN3. After the 1 hour Kinase Reaction incubation, 5 μL of a 1:64 dilution of Development Reagent B is added. • (iv) Peptide/Kinase Mixtures for measurement of BTK: The 2×BTK/Tyr 01 mixture is prepared in 50 mM HEPES pH 7.5, 0.010/BRIJ-35, 10 mM MgCl2, 1 mM EGTA. The final 10 μL Kinase Reaction consists of 1.04-10.4 ng BTK and 2 μM Tyr 01 in 50 mM HEPES pH 7.5, 0.01% BRIJ-35, 10 mM MgCl2, 1 mM EGTA. After the 1 hour Kinase Reaction incubation, 5 μL of a 1:256 dilution of Development Reagent B is added.
(§3) Reaction starts by 30-second shaking of mixture consisting of 2.5 μL 4× test compound, 5 μL 2× kinase reaction mixture and 2.5 μL 4×ATP Solution on Bar-coded Corning, low volume NBS, black 384-well plate (Corning Cat. #3676). Then the mixture is incubated for 60-minute at room temperature for the kinase reaction, followed by addition of 5 μL of a 1:1024 dilution of development reagent A and 30-second plate shake. The mixture is then incubated for another 60-minute at room temperature for development reaction. Finally fluorescence is read by plate reader.
(§4) The Z′-LYTE assay was carried out with ATP concentration at Km. The scale utilized in Tables 2-6 is as follows: ++ more than 50% inhibition and + less than 50% inhibition.

Test [4] deals with EGFR (ErbB1) L858R (Homo sapiens (Human), UniProt P00533, L858R). Nature of the test: Z'-LYTE kinase inhibition assay against EGFR L858R. Format: biochemical. To be noted: compound at 100 nM; ATP concentration at Km. As to the method:
as §1, §2, §3, §4

Test [5] deals with EGFR (ErbB1) T790M (Homo sapiens (Human), UniProt P00533, T790M). Nature of the test: Z'-LYTE kinase inhibition assay against EGFR T790M. To be noted: compound at 100 nM; ATP concentration at Km. Format: biochemical. How it is done: as §1, §2, §3, §4
For test [6], the target named is EGFR del746_750 (Homo sapiens (Human), UniProt P00533, DEL746-750). Nature of the test: SelectScreen Lantha method (Eu-anti-GST antibody/tracer) for EGFR del746_750. Format: binding. As to conditions: compound at 100 nM; read-out: % Inhibition against EGFR del745_750. How it is done:
SelecteScreen's Lantha® method from Life Technologies was used to measure compound's activities in inhibition of EGFR del746_750.
Test Compounds are screened in 1% DMSO (final) in the well. For 10 point titrations, 3-fold serial dilutions are conducted from the starting concentration. • Components for EGFR del745_750: • Kinase Buffer A: 50 mM HEPES pH 7.5, 0.01% BRIJ-35, 10 mM MgCl2, 1 mM EGTA • Kinase/Antibody Mixtures for EGFR del745_ 750: EGFR del745_ 750 10 nM, Antibody: Eu-anti-GST 2 nM, Tracer 199 10 nM, Inhibitor: SB202190 88.2 nM, All Kinase/Antibody Mixtures are diluted to a 2× working concentration in the appropriate Kinase Buffer • Tracer: The 4× AlexaFluor® labeled Tracer is prepared in Kinase Buffer.
To start the measurement, the following components are added to individual wells of bar-coded, low volume, white 384-well plate (Greiner Cat. #784207): • 1. 160 nL—100× Test Compound in 100% DMSO. • 2. 3.84 μL—Kinase Buffer: • 3. 8.0 μL—2× Kinase/Antibody Mixture • 4. 4.0 μL—4× Tracer The mixture above is then shaken for 30-second following by 60-minute incubation at room temperature. Finally the plate is read on fluorescence plate reader.
as §4

Some results are limits rather than exact numbers.

BTK, sequence (Q06187 whole entry): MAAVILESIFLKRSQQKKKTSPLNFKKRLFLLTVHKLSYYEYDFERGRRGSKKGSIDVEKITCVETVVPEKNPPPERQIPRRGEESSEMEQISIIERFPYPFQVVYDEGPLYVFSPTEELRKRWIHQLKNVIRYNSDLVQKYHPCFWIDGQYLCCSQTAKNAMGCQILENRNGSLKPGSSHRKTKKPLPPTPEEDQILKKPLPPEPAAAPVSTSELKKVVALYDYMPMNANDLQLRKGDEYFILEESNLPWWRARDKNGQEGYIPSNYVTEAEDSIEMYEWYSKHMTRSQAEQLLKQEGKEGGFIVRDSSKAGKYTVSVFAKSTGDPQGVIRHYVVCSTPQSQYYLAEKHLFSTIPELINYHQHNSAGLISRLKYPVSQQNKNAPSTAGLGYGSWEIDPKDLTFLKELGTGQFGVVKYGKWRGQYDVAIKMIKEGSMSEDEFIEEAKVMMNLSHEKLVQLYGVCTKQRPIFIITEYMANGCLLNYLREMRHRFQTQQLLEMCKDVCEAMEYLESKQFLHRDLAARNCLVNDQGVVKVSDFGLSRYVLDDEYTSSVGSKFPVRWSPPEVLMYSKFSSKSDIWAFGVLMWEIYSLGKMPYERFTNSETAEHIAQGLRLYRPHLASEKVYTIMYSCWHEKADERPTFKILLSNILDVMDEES
EGFR del746_750, sequence (P00533 other isoform, or with tags, fused parts or gaps del E746-A750): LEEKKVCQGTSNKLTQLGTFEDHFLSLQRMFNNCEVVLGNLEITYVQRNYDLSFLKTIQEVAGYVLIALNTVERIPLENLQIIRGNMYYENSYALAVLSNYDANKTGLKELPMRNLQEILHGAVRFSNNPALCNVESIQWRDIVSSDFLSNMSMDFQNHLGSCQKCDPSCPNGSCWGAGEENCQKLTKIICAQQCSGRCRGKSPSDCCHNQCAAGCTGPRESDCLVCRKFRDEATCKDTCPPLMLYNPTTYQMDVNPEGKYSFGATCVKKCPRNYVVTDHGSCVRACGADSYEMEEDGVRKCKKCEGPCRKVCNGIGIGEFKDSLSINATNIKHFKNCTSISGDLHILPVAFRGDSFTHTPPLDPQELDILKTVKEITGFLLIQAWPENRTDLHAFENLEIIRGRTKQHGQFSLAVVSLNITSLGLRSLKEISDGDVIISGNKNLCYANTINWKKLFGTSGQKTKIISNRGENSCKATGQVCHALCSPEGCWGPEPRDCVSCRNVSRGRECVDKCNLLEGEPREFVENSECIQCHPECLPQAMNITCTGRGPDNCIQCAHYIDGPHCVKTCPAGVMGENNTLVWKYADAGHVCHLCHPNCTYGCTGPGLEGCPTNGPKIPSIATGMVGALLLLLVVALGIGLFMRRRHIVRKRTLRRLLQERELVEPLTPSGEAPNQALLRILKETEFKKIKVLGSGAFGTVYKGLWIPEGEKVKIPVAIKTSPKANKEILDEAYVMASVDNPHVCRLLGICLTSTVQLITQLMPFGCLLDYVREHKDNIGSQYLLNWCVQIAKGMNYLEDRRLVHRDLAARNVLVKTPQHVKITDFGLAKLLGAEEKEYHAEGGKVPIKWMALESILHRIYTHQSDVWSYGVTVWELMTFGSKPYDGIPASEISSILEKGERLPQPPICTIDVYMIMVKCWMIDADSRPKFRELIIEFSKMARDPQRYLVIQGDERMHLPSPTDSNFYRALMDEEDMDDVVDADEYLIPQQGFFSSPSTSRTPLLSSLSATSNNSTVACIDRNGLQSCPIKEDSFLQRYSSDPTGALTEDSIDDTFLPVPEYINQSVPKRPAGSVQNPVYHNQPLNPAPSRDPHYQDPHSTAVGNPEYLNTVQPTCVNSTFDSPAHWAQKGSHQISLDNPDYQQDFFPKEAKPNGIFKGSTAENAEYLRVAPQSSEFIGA
EGFR (ErbB1) T790M, sequence (P00533 25-1210 T790M): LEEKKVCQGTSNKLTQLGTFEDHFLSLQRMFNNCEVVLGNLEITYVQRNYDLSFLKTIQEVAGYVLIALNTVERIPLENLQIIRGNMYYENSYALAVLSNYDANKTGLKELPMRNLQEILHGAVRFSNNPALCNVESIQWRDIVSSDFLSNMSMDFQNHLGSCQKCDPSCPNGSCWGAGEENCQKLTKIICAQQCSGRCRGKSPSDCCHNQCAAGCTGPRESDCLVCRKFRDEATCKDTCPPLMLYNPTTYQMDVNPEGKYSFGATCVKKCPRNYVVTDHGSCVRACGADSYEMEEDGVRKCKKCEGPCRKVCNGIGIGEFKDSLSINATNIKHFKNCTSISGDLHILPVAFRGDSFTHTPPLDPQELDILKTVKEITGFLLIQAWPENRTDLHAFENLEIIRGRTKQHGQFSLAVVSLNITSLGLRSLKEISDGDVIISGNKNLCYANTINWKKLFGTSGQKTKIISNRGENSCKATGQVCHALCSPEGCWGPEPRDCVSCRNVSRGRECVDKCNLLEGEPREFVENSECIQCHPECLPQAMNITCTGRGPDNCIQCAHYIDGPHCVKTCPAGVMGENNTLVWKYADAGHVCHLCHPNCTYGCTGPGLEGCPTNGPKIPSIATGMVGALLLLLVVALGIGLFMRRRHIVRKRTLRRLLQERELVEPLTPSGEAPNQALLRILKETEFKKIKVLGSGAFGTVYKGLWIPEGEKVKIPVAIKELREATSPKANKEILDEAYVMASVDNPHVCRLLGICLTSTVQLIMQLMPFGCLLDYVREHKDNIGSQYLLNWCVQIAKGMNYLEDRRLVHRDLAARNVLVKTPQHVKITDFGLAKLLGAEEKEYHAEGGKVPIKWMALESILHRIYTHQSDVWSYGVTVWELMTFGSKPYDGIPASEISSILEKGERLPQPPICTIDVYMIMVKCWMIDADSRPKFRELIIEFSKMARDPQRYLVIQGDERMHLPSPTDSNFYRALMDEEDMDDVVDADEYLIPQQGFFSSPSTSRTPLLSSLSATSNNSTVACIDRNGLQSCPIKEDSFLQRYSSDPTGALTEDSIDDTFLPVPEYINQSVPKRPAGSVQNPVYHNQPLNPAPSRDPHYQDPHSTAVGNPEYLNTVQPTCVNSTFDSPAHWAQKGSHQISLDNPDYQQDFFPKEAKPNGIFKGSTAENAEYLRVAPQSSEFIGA
EGFR (ErbB1) L858R/T790M, sequence (P00533 25-1210 T790M/L858R): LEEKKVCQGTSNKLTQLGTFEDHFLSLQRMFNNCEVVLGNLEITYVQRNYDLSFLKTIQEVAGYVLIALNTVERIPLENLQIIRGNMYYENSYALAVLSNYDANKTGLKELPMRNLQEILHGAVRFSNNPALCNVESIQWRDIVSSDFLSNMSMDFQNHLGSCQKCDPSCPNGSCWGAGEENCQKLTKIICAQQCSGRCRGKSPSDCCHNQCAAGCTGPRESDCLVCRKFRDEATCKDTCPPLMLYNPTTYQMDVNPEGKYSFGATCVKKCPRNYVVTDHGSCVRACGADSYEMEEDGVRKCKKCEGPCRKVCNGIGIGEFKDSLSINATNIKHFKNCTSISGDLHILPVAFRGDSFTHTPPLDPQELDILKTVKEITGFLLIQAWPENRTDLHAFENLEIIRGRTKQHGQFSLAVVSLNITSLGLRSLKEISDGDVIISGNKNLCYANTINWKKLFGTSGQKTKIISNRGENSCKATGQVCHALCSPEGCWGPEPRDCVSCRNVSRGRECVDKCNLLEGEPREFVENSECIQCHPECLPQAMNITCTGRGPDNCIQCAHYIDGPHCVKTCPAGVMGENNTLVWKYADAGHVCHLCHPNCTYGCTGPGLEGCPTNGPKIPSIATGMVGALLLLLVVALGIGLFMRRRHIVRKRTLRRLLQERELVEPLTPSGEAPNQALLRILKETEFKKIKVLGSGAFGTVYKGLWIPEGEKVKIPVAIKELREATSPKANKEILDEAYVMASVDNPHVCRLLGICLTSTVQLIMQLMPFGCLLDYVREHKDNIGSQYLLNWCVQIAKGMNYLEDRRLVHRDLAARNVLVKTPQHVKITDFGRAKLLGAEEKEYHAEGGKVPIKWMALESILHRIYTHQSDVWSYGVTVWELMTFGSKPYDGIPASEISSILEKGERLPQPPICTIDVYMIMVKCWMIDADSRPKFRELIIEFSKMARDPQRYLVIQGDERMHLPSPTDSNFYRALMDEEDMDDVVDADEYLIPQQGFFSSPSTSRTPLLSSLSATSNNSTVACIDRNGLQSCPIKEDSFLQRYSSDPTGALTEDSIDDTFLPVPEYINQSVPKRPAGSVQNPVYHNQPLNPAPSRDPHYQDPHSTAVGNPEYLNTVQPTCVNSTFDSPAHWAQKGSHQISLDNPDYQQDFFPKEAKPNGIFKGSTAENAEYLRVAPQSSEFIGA

Take `C=CC(=O)Nc1cccc(-c2cc(-c3ccc(C(=O)Nc4ccccn4)cc3Cl)cc3cncnc23)c1` [C052, 4-(8-(3-acrylamidophenyl)quinazolin-6-yl)-3-chloro-N-(pyridin-2-yl)benzamide]: the IC50 in test [1] is less than 50 nM; in test [2] (series of concentrations, GraphPad Prism 5), less than 100 nM. Besides, the inhibition at 0.1 µM in test [2] (compound at 100 nM, ATP concentration at Km) is greater than 50%; in test [3], less than 50%; in test [4], less than 50%; in test [5] it was less than 50%; in test [6], less than 50%.
